Results taken from PMC8623273, “Novel N7-Arylmethyl Substituted Dinucleotide mRNA 5′ cap Analogs: Synthesis and Evaluation as Modulators of Translation” (Pharmaceutics, 2021).
Like-named read-outs stand apart in the source and are kept apart here.

Columns and labels:
[1] = biological target: eukaryotic translation initiation factor 4E (eIF4E) (Mus musculus, UniProt P63073); experiment: pyrene-probe fluorescent competitive-binding assay (PyFLINT-B) for cap analog-eIF4E; conditions: for EC50: Table S2; for Kd: pyrene-based high-throughput competition assay, 30 °C, KD calculated from EC50, read-out: KD Cap-eIF4E ± SD; for effect of the N7 substituent on eIF4E binding (in words): compared to m^7GpppG / 1a or unmodified counterpart
Text: High affinity for eIF4E is a desirable feature of cap analogs designed for modulating translation, either as small molecules or as a part of mRNA. Thus, we studied how different substituents at the N7-position affected eIF4E-cap interaction. To this end, we first determined the affinity of m^7GpppG and Bn^7GpppG (1a) using time-synchronized fluorescence quenching titration, a very precise and well-established, but low-throughput method. Next, to evaluate the whole set of the synthesized compounds (1a–1r), we used a high-throughput competitive-binding assay based on a pyrene-labeled fluorescent probe. From this assay we determined relative affinities of the compounds represented by half-effective concentrations (EC50) (Figure 3A–C), which were then used to calculate dissociation constant (KD) values for cap analog–eIF4E complexes using previously reported equations (Table 2, Figure 3D).
To determine the dissociation constants of the library of N7-benzylated dinucleotide 5′ cap analogs for translation initiation factor 4E, a fluorescent competitive-binding assay (PyFLINT-B) was applied as previously described. The experiments were performed on a Synergy™ H1 plate reader in 96-well, black, non-binding assay plates. Each well contained an appropriate buffer (50 mM Hepes/KOH pH 7.2, 100 mM KCl and 0.5 mM EDTA), pyrene probe m^7Gp5C4Py (10 nM), substrate (in half-logarithmic dilutions from 850 μM to 0.03 μM for compound 1m and from 100 μM to 0.003 μM for m^7GpppG and the rest of the compounds) and protein eIF4E (75 nM). The m^7Gp5C4Py was synthesized as describer earlier. The pyrene probe was dissolved in water and concentration was determined spectrometrically at 345 nm using the extinction coefficient (21,000 M^−1 cm^−1). The eIF4E protein was centrifuged after defrosting (5 min, 4 °C, 10k rcf) and its concentration was determined spectrometrically at 280 nm using the extinction coefficient (52,940 M^−1 cm^−1). The reaction mixtures were preincubated (15 min, 300 rpm, 30 °C). All measurements were performed at 30 °C and the fluorescence detection at 345 nm excitation and 378 nm emission was recorded.
To determine EC50 values, GraphPad Prism 9.1.2 software was used. To fit the curves to the obtained data we used the following formula:(1) Y=Bottom+ Top−Bottom/1+ X/EC50 where: X, cap analog (ligand) concentration; EC50, concentration of the cap analog resulting in half-maximal response from the fluorescent probe–protein complex; Bottom, minimal signal from the negative control, which contains only the free probe; Top, maximal signal from the positive control, the mixture of the protein and the fluorescent probe.
The dissociation constants KD were then calculated using the equation described by Nikolovska-Coleska et al.:(2) KD=EC50−Pt+PL50KD_probe/L50+1/L50/KD_probe+P0/KD_probe+1 where: EC50, concentration of the cap analog resulting in half-maximal response from the fluorescent probe–protein complex; [Pt], total protein concentration; [PL]50, concentration of the probe–protein complex at 50% inhibition; KD_probe, dissociation constant of the complex between the fluorescent probe and the protein; [L]50, probe concentration at 50% inhibition; [P]0, free protein concentration at 0% inhibition.

[2] = biological target: eIF4E (Mus musculus, UniProt P63073); experiment: fluorescence anisotropy (FA) competition assay with eIF4E; assay type: binding; conditions: Table S2; for EC50: 25 °C, probe m^7GTP-triazol-FAM 10 nM, eIF4E 100 nM; for Kd: calculated from EC50
Text: The KD values determined from the high-throughput assay were in qualitative agreement with data from time-synchronized fluorescence quenching titration, justifying the use of the former for evaluation of the whole set of caps. […] To additionally verify the binding affinity data (especially for 1q and 1r, as mentioned above), we determined the binding affinities for all analogs using another independent assay, based on fluorescence anisotropy. The KD data determined by this method correlated very well with the results reported above (Table S2, Figure S2).
Fractions of the compounds were independently tested using a different method based on fluorescence anisotropy (FA). These experiments were performed on a Synergy™ H1 plate reader in 96-well, black, non-binding assay plates. Each well contained appropriate buffer (50 mM HEPES/KOH pH 7.2, 100 mM KCl, 0.5 mM EDTA i 1 mM DTT), the fluorescent probe m^7GTP-triazol-FAM (10 nM), substrate (in a 2.08-fold dilution, starting from 60 μM) and protein eIF4E (100 nM). The m^7GTP-triazol-FAM was synthesized as describer earlier. All measurements were performed at 25 °C. Determined EC50 values were means ± SD of three independent experiments. The dissociation constants KD were then calculated using the equation described by Nikolovska-Coleska as described earlier.

[3] = test system: cap-dependent translation in rabbit reticulocyte lysate (RRL); experiment: inhibition of cap-dependent translation in rabbit reticulocyte lysate (RRL); assay type: biochemical
Protocol: After determining the affinity for eIF4E and susceptibility to DcpS, we evaluated the analogs as inhibitors of protein translation in rabbit reticulocyte lysates (RRL). To enable better assessment of how these two factors influenced inhibitory properties, we performed two sets of experiments. In the first set, cap analogs were added to RRL along with luciferase-encoding reporter mRNA followed by a protein activity (luminescence) readout after 1 h, whereas in the second set cap analogs were additionally preincubated in RRL for 1 h prior to addition of mRNA. Based on previously reported findings, we expected that in the second experimental setup, cap analogs susceptible to DcpS would lose their inhibitory potency, whereas compounds resistant to DcpS would remain similarly active.
The ability of the N7-benzyl cap analogues to inhibit cap-dependent translation was assayed in a rabbit reticulocyte lysate (RRL) system. Two sets of experiments were performed. In both variants, in vitro translation reactions (10 μL total volume) contained a tested cap analog (inhibitor) and an in vitro transcribed, ARCA-capped mRNA encoding Gaussia luciferase at 1 μg/mL final concentration. In experimental variant A, cap analogues at concentrations in the range of 0 to 64 μM and mRNA were added to the reaction mixture at the same time. Reactions were incubated at 30 °C for 60 min and then stopped by freezing in liquid nitrogen. In experimental variant B, the cap analogues were added at concentrations in the range of 0 to 160 μM. Reactions were pre-incubated at 30 °C for 60 min prior to addition of mRNA; after addition of mRNA incubation was continuous at 30 °C for 60 min and then stopped by freezing in liquid nitrogen. To detect luminescence from Gaussia luciferase, 50 μL of 10 ng/mL h-coelenterazine (NanoLight, Norman, OK, USA) in PBS was added to 10 μL of RRL and the luminescence was measured with a Synergy H1 (BioTek, Winooski, VT, USA) microplate reader.

[4] = RRL, cap analog and mRNA added at the same time (no pre-incubation), 60 min, 30 °C, read-out: Translation Inhibition IC50
[5] = cap analog incubated in RRL for 1 h prior to adding mRNA, read-out: Translation Inhibition IC50 (value in brackets) (converted)

Sequence of eIF4E (P63073 whole entry): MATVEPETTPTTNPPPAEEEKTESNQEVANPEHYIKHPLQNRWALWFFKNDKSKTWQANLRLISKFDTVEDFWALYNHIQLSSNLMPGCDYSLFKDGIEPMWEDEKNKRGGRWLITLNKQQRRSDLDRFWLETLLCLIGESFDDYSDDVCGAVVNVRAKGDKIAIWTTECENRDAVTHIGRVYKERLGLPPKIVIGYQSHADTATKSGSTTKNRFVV
Sequence of eukaryotic translation initiation factor 4E (eIF4E) (P63073 whole entry): as above

Row | Compound | EC50 [1] [nM] | Kd [1] [nM] | EC50 [2] [nM] | Kd [2] [nM] | IC50 [3, 4] [nM] | IC50 [3, 5] [nM] | effect of the N7 substituent on eIF4E binding (in words) [1]
1 | Nc1nc(O)c2c(n1)n([C@@H]1O[C@H](COP(=O)(O)OP(=O)([O-])OP(=O)(O)OC[C@H]3O[C@@H](n4cnc5c(=O)[nH]c(N)nc54)[C@H](O)[C@@H]3O)[C@@H](O)[C@H]1O)c[n+]2Cc1ccc(Cl)cc1 [1h, 4-Cl-Bn^7GpppG] | 2600 | 221 ± 37 | 340 ± 140 | 102 ± 53 | 18700 ± 3000 | 18700 ± 3600 | 
2 | Nc1nc(O)c2c(n1)n([C@@H]1O[C@H](COP(=O)(O)OP(=O)([O-])OP(=O)(O)OC[C@H]3O[C@@H](n4cnc5c(=O)[nH]c(N)nc54)[C@H](O)[C@@H]3O)[C@@H](O)[C@H]1O)c[n+]2Cc1ccccc1 [1a, Bn^7GpppG] |  | 217 ± 36 | 270 ± 20 | 74 ± 23 | 7400 ± 1400 | 9600 | 
3 | Nc1nc(O)c2c(n1)n([C@@H]1O[C@H](COP(=O)(O)OP(=O)([O-])OP(=O)(O)OC[C@H]3O[C@@H](n4cnc5c(=O)[nH]c(N)nc54)[C@H](O)[C@@H]3O)[C@@H](O)[C@H]1O)c[n+]2Cc1ccc(C(F)(F)F)cc1 [1l, 4-CF3-Bn^7GpppG] |  | 293 ± 43 | 590 ± 40 | 194 ± 17 | 9700 ± 2000 | 40000 | 
4 | CC(C)c1ccc(C[n+]2cn([C@@H]3O[C@H](COP(=O)(O)OP(=O)([O-])OP(=O)(O)OC[C@H]4O[C@@H](n5cnc6c(=O)[nH]c(N)nc65)[C@H](O)[C@@H]4O)[C@@H](O)[C@H]3O)c3nc(N)nc(O)c32)cc1 [1e, 4-iPrBn^7GpppG] | 6200 | 534 ± 100 | 1300 ± 90 | 444 ± 33 | 15200 ± 3100 |  | KD increased more than double
5 | Nc1nc(O)c2c(n1)n([C@@H]1O[C@H](COP(=O)(O)OP(=O)([O-])OP(=O)(O)OC[C@H]3O[C@@H](n4cnc5c(=O)[nH]c(N)nc54)[C@H](O)[C@@H]3O)[C@@H](O)[C@H]1O)c[n+]2Cc1ccc([N+](=O)[O-])cc1 [1n, 4-NO2-Bn^7GpppG] | 4300 | 367 ± 71 | 520 ± 120 | 168 ± 43 | 28200 ± 7500 |  | accepted by the protein
6 | Nc1nc(O)c2c(n1)n([C@@H]1O[C@H](COP(=O)(O)OP(=O)([O-])OP(=O)(O)OC[C@H]3O[C@@H](n4cnc5c(=O)[nH]c(N)nc54)[C@H](O)[C@@H]3O)[C@@H](O)[C@H]1O)c[n+]2Cc1ccc(F)cc1 [1g, 4-F-Bn^7GpppG] | 3100 | 261 ± 54 | 240 ± 80 | 64 ± 31 | 6000 ± 900 | 21400 | 
7 | Nc1nc(O)c2c(n1)n([C@@H]1O[C@H](COP(=O)(O)OP(=O)([O-])OP(=O)(O)OC[C@H]3O[C@@H](n4cnc5c(=O)[nH]c(N)nc54)[C@H](O)[C@@H]3O)[C@@H](O)[C@H]1O)c[n+]2Cc1ccc(Br)cc1 [1i, 4-Br-Bn^7GpppG] | 2000 | 172 ± 26 | 210 ± 10 | 52 ± 3 | 6400 ± 1000 | 22200 | 
8 | Cn1c[n+]([C@@H]2O[C@H](COP(=O)(O)OP(=O)([O-])OP(=O)(O)OC[C@H]3O[C@@H](n4cnc5c(=O)[nH]c(N)nc54)[C@H](O)[C@@H]3O)[C@@H](O)[C@H]2O)c2nc(N)[nH]c(=O)c21 [m^7GpppG, reference compound] | 2700 ± 300 | 229 ± 37 | 410 ± 10 | 127 ± 5 | 11400 ± 2400 | 30100 | 
9 | Cc1cccc(C[n+]2cn([C@@H]3O[C@H](COP(=O)(O)OP(=O)([O-])OP(=O)(O)OC[C@H]4O[C@@H](n5cnc6c(=O)[nH]c(N)nc65)[C@H](O)[C@@H]4O)[C@@H](O)[C@H]3O)c3nc(N)nc(O)c32)c1 [1c, 3-MeBn^7GpppG] | 3700 | 319 ± 55 | 670 ± 20 | 222 ± 8 | 6600 ± 800 | 8200 | 
10 | CO[C@@H]1[C@H](O)[C@@H](COP(=O)(O)OP(=O)([O-])OP(=O)(O)OC[C@H]2O[C@@H](n3cnc4c(=O)[nH]c(N)nc43)[C@H](O)[C@@H]2O)O[C@H]1n1c[n+](Cc2ccc(Cl)cc2)c2c(O)nc(N)nc21 [1r, 4-Cl-Bn^7GmpppG] | 1600 | 132 ± 20 | 190 ± 20 | 45 ± 7 | 6000 ± 900 |  | twofold increase in cap-binding affinity
11 | CO[C@@H]1[C@H](O)[C@@H](COP(=O)(O)OP(=O)([O-])OP(=O)(O)OC[C@H]2O[C@@H](n3cnc4c(=O)[nH]c(N)nc43)[C@H](O)[C@@H]2O)O[C@H]1n1c[n+](Cc2ccccc2)c2c(O)nc(N)nc21 [1q, Bn^7GmpppG] | 2000 | 171 ± 25 | 180 ± 30 | 40 ± 11 | 3700 ± 500 | 8200 | twofold increase in cap-binding affinity
